{"source": "patent US10526309B2", "about": "“Pan-TAM inhibitors and Mer/Axl dual inhibitors” (The University of North Carolina at Chapel Hill, priority 2015, dated 2020)", "key": {"[1]": {"target": "T1, Mer (Homo sapiens, UniProt Q12866)", "T1 sequence (Q12866 21-999)": "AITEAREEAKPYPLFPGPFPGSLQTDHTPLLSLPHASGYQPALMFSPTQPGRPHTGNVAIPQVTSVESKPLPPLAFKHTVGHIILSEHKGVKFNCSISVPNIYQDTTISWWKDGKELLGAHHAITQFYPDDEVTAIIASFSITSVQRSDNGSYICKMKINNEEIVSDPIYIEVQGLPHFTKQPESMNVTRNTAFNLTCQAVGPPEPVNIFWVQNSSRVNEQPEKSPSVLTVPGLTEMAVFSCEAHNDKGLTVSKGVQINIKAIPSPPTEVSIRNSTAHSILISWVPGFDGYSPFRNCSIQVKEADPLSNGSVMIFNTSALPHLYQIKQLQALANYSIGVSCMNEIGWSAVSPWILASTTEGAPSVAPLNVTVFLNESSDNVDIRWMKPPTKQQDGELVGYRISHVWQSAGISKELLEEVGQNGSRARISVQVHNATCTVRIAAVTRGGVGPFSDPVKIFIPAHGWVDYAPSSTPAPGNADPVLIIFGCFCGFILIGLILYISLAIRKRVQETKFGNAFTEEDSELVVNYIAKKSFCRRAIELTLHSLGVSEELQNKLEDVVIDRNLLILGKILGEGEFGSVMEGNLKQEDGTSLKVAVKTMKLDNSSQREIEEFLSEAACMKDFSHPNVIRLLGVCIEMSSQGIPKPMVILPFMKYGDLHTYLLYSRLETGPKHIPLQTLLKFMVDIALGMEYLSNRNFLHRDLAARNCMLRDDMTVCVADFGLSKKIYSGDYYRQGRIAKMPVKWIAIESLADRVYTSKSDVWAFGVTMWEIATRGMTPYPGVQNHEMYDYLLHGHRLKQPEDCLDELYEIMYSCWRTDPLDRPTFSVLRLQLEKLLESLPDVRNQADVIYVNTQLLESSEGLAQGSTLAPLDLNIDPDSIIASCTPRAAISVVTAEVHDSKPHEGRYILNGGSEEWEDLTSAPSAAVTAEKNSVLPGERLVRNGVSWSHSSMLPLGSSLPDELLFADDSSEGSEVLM", "experiment": "Mer kinase inhibition IC50", "assay_type": "biochemical"}, "[2]": {"target": "T2, FLT3 (Homo sapiens, UniProt P36888)", "T2 sequence (P36888 27-993)": "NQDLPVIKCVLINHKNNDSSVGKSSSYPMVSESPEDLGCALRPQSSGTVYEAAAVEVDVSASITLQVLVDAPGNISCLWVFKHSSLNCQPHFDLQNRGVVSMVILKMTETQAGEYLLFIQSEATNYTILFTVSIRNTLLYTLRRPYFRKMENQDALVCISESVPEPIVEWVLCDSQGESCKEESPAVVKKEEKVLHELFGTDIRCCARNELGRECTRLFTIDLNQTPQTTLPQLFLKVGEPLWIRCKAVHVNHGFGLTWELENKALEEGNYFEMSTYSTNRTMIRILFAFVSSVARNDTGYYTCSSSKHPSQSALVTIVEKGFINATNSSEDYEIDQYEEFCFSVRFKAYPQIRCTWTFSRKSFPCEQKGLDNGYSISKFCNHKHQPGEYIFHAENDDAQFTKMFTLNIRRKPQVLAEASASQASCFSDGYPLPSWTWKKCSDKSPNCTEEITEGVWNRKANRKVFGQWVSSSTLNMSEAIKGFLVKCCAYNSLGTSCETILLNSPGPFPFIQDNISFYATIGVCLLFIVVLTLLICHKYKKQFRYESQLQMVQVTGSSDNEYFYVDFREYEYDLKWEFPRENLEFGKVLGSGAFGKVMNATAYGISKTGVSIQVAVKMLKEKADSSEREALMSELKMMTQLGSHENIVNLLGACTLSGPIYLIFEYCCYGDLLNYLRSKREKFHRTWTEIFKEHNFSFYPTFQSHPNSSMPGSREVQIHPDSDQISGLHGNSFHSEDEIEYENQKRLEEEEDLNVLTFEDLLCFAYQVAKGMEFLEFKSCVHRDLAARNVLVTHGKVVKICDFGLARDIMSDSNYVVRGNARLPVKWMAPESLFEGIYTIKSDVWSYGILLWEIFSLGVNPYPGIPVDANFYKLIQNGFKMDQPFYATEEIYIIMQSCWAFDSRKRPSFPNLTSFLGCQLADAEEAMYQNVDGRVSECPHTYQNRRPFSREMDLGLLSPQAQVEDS", "experiment": "FLT3 kinase inhibition IC50", "assay_type": "biochemical", "details": "Example 6"}, "[3]": {"system": "MDA-MB-231 cells", "experiment": "Invasion of MDA-MB-231 multicellular tumor spheroids in 3D collagen matrix", "assay_type": "cell-based", "details": "MDA-MB-231 spheroids, 24 hours in collagen culture; in comparison to UNC1653, UNC2025, UNC2250", "from_the_text": "The invasion of triple negative highly aggressive breast adenocarcinoma cells (MDA-MB-231) cultured as multicellular tumor spheroids (MTSs) in a 3D collagen matrix was examined."}, "[4]": {"target": "T3, Axl (Homo sapiens, UniProt P30530)", "T3 sequence (P30530 26-894)": "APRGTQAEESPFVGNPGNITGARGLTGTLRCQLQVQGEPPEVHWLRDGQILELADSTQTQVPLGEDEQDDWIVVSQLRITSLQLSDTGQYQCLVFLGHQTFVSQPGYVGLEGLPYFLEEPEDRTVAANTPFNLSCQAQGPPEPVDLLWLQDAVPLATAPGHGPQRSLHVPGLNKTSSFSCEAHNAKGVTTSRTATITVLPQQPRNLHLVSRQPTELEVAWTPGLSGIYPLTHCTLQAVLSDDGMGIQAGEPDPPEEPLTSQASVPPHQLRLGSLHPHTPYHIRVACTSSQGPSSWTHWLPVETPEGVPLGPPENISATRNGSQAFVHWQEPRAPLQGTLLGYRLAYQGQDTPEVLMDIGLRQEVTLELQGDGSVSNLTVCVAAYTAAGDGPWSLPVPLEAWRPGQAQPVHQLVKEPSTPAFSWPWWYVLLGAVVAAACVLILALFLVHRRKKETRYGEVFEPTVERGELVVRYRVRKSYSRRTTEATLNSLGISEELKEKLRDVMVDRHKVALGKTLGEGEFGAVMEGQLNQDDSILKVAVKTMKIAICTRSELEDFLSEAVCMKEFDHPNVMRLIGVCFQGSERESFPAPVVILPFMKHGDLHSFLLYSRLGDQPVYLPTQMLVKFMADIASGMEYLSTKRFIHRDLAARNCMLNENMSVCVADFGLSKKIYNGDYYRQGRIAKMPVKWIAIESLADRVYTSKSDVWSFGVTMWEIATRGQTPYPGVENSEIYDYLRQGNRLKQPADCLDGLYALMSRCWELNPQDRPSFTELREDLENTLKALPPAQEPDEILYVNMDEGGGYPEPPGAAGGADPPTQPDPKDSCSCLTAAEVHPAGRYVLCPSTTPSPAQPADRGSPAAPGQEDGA", "experiment": "Axl kinase inhibition IC50", "assay_type": "biochemical"}}, "note": "pIC50: −log10 of the molar value. Where two headings read alike, the source gives them in different places.", "data": [{"compound": "O[C@H]1CC[C@H](Nc2nc(Nc3ccccc3)ncc2-c2ccc(CN3CCCC3)cn2)CC1", "note": "[UNC4198A]", "values": [{"measurement": "pIC50", "setting": "[1]; Example 6, read-out: MerTK IC50", "result": 9.01}, {"measurement": "pIC50", "setting": "[1]; Table 1, read-out: Mer IC50", "result": "> 8.00"}, {"measurement": "pIC50", "setting": "[2]", "result": 9.12}, {"measurement": "levels of invasion", "setting": "[3]", "result": "decreased levels of invasion"}, {"measurement": "pIC50", "setting": "[4]; Example 6", "result": 8.26}, {"measurement": "pIC50", "setting": "[4]; Table 1", "result": "> 8.00"}]}]}
